For 14 molecules, IC50 results are on record in ChEMBL document CHEMBL3301562, “MMV Box screening against Plasmodium falciparum protein kinases and aminoacyl tRNA synthetases”.

Each structure is given as a SMILES string.

Holding throughout (format): functional
The target in assay [1] is T1, Mitogen-activated protein kinase (Plasmodium falciparum, UniProt Q25917).
T1 sequence (Q25917 whole entry): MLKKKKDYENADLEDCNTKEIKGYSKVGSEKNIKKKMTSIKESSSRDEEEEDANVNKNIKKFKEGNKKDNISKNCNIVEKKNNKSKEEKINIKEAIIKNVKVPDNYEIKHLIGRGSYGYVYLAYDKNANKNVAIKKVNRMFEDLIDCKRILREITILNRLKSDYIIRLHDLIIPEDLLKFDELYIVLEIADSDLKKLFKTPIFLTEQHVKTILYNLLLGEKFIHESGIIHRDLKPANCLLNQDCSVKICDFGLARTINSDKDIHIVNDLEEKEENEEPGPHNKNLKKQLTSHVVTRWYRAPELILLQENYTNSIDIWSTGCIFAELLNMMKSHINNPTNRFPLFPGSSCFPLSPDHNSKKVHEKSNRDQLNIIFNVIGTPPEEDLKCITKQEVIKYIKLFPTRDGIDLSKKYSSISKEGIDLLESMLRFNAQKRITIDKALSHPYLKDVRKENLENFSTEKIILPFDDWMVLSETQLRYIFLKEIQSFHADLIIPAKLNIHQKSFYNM
In words: Final concentrations were 1 uM ATP, 0.5 mM DTT, 1 mM MgCl2, 0.5 mg/mL BSA, and 10 ug/ml MAP2 in a buffer of 50 mM HEPES (pH 7.0). 0.5 mg/mL histone III-S served as the substrate (13); 100 uM AMP-PNP, an ATP analog, was used as a control inhibitor. Incubation time was 4 hours.

Assay [2] deals with Calcium-dependent protein kinase 1 (Plasmodium falciparum, UniProt P62344). The assay can be described thus: MMV: CDPK1 Protein kinase inhibition assay using recombinant PfCDPK1, syntide 2 peptide substrate, ATP and KinaseGlo to measure % inhibition at 1 uM MMV box compound. (In Kinase-Glo more light means more ATP remaining.)
Sequence of Calcium-dependent protein kinase 1 (P62344 whole entry): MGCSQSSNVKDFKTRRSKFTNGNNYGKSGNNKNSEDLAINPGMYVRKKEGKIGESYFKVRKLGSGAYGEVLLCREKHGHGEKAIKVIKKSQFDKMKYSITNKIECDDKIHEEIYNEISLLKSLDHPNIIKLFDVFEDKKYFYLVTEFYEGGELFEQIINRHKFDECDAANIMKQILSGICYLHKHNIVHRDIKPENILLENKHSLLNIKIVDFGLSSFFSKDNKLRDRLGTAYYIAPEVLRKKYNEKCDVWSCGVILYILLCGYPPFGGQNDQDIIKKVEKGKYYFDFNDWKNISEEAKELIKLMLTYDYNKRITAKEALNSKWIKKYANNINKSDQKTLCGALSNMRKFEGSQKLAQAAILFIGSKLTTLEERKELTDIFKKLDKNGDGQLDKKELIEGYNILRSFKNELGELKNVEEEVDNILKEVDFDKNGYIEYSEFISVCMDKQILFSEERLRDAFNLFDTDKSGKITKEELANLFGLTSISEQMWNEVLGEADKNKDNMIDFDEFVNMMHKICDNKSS
Assay [3] has as its target Lysine--tRNA ligase (Plasmodium falciparum (isolate 3D7), UniProt Q8IDJ8). The assay can be described thus: MMV: KRS recombinant Plasmodium falciparum Lysyl-tRNA-synthetase, assay with yeast tRNA, ATP, and lysine and 3 uM MMV malaria box compound, assay read out with kinase glo as % inhibition.
Assay [4] addresses T2, Proline--tRNA ligase (Plasmodium falciparum (isolate 3D7), UniProt Q8I5R7).
T2 sequence (Q8I5R7 whole entry): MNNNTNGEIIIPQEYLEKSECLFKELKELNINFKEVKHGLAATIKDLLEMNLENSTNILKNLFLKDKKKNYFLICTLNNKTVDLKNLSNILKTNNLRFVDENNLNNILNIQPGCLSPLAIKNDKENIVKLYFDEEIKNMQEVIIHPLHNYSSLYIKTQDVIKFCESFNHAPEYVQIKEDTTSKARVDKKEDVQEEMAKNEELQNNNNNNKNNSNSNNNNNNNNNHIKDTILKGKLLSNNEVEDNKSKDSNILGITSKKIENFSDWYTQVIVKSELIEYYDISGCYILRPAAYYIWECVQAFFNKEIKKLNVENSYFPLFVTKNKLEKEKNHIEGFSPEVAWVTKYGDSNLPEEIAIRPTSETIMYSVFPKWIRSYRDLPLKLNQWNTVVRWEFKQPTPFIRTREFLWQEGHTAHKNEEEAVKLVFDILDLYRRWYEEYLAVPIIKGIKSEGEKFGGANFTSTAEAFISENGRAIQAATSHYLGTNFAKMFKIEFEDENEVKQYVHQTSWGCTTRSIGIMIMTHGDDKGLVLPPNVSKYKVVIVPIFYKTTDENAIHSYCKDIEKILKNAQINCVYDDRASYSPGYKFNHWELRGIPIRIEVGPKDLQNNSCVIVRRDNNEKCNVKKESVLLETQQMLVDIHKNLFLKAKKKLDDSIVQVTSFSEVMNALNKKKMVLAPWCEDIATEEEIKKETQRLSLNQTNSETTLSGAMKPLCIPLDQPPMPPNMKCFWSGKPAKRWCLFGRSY
The assay can be described thus: MMV: ProRS recombinant Plasmodium falciparum Prolyl-tRNA-synthetase, assay with yeast tRNA, ATP, and proline and 3 uM MMV malaria box compound, assay read out with kinase glo as % inhibition.

In assay [5] the target is T3, Putative uncharacterized protein pk7 (Plasmodium falciparum, UniProt O96214).
T3 sequence (O96214 whole entry): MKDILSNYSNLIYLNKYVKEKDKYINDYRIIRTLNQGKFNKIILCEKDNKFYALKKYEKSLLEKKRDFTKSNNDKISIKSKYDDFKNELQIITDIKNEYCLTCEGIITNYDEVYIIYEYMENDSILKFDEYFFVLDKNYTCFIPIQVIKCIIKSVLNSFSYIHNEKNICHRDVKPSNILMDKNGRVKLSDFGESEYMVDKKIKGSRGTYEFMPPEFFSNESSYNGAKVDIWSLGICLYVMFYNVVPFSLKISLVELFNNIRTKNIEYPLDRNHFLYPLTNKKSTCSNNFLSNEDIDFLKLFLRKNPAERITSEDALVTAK
The assay can be described thus: Final concentrations were 1 uM ATP, 2 mM DTT, 20 mM MgCl2, 2 mM MnCl2, 0.01% BSA, and 6 ug/ml PK7, in a buffer of 20 mM Tris-HCl (pH 7.5). The enzyme itself was the only substrate present (since autophosphorylation occurs); 100 uM 1NA-PP1 was used as a control inhibitor. Incubation time was 3 hours.

The target in assay [6] is T4, Calcium-dependent protein kinase 4 (Plasmodium falciparum (isolate 3D7), UniProt Q8IBS5).
T4 sequence (Q8IBS5 whole entry): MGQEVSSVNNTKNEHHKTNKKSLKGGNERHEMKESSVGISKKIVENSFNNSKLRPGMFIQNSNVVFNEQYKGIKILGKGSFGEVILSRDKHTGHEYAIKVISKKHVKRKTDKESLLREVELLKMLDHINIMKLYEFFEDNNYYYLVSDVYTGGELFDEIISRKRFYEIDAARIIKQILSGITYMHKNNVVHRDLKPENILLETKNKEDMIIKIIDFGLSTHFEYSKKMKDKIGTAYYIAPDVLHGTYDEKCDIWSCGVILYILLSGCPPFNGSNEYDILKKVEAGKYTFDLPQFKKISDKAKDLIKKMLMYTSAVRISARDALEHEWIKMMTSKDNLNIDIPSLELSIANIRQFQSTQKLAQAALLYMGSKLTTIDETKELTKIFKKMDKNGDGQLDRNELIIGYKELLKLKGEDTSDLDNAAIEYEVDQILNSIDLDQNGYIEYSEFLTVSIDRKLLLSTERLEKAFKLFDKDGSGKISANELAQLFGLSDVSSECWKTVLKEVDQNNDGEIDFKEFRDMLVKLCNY
The assay can be described thus: MMV: CDPK4 Protein kinase inhibition assay using recombinant PfCDPK4, syntide2 peptide substrate, ATP and KinaseGlo to measure % inhibition at 1 uM MMV box compound.

Assay [7] has as its target T5, Cdk-related protein kinase 6 (Plasmodium falciparum, UniProt O77239).
T5 sequence (O77239 whole entry): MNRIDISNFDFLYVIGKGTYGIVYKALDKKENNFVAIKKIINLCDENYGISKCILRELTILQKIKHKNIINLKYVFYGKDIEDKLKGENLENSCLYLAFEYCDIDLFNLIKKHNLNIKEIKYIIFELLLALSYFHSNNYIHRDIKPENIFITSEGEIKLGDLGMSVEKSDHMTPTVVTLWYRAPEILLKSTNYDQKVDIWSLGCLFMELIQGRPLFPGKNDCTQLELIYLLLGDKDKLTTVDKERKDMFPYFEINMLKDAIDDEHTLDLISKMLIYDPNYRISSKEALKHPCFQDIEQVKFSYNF
In words: Final concentrations were 1.5 uM ATP, 5 mM MnCl2, and 15 ug/ml PK6 in a buffer of 100 mM Tris-HCl (pH 7.5). 50 ug/mL MBP was provided as the substrate; 10 uM staurosporine was used as a control inhibitor. Incubation time was 3 hours and 40 minutes.The catalytic activity of each kinase was considered proportional to ATP consumed, as determined from measurements of residual [ATP] with the luciferase-based reagent Kinase-Glo (Promega) following incubation. Luminescence (proportional to residual [ATP]) was measured on the plate readers FLx800 (BioTek Instruments, Winooski, VT, USA) and MicroBeta2.

For orientation: IC50 means the concentration at which inhibition is half-maximal.

Sequence of Lysine--tRNA ligase (Q8IDJ8 whole entry): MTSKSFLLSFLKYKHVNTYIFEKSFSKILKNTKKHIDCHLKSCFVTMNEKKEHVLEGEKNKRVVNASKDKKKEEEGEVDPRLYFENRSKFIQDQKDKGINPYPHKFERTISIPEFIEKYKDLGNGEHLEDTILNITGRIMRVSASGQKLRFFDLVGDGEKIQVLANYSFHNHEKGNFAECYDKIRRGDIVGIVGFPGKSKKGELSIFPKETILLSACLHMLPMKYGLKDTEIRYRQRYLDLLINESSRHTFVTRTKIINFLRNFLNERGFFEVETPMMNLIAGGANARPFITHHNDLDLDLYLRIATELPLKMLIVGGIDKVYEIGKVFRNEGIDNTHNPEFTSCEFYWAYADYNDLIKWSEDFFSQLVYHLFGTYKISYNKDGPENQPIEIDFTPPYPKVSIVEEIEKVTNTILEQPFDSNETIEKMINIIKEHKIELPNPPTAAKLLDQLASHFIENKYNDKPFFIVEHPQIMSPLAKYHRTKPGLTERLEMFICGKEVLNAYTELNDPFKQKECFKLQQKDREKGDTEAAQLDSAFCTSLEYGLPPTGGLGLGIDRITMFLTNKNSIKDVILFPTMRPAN

Regarding `O=C(Nc1ccccc1O)c1ccc(Oc2cccc(C(=O)Nc3ccccc3O)c2)cc1`, the IC50 in assay [1] is above 1000 nM; in assay [2], above 1000 nM; in assay [3], above 2500 nM; in assay [4] it was above 2500 nM; in assay [5] it was above 1000 nM; in assay [6], above 1000 nM. The same molecule gave an IC50 in assay [7] above 1000 nM.

Turning to `N=c1n(CCN2CCCCC2)c2ccccc2n1CC(O)c1cccc(Br)c1` (stereo not drawn), the IC50 was above 1000 nM in assay [1]; above 1000 nM in assay [2]; above 2500 nM in assay [3]; above 2500 nM in assay [4]; above 1000 nM in assay [5]; above 1000 nM in assay [6]. This molecule displayed an IC50 in assay [7] above 1000 nM.

For `COc1ccc(C(=O)Nc2ccc3nc(N4CCCCC4)cc(C)c3c2)cc1OC`, the IC50 in assay [1] was above 1000 nM; in assay [2], above 1000 nM; in assay [3] it was above 2500 nM; in assay [4], above 2500 nM; in assay [5] it was above 1000 nM; in assay [6], above 1000 nM. In addition, the IC50 in assay [7] is above 1000 nM.

Regarding `COc1ccc(CCN2CCC(CN(C)Cc3cnn(-c4ccccc4)c3)CC2)cc1`, the IC50 in assay [1] is above 1000 nM; in assay [2] it was above 1000 nM; in assay [3] it was above 2500 nM; in assay [4], above 2500 nM; in assay [5], above 1000 nM; in assay [6], above 1000 nM. The molecule also gave an IC50 in assay [7] above 1000 nM.

As to `FC(F)(F)c1cccc(Nc2nc(-c3ccccc3)nc3ncccc23)c1`, the IC50 in assay [1] was above 1000 nM; in assay [2], above 1000 nM; in assay [3] it was above 2500 nM; in assay [4], above 2500 nM; in assay [5] it was above 1000 nM; in assay [6], above 1000 nM. The molecule further displayed an IC50 in assay [7] above 1000 nM.

Regarding `COc1ccc(CNC2CCN(c3ccc(NC(=O)c4cccc(Cl)c4)cc3)CC2)cc1OC`, the IC50 was above 1000 nM in assay [1]; above 1000 nM in assay [2]; above 2500 nM in assay [3]; above 2500 nM in assay [4]; above 1000 nM in assay [5]; above 1000 nM in assay [6]. In assay [7], this molecule returned an IC50 above 1000 nM.

Regarding `CC(NCc1ccccc1)c1cc(Cl)ccc1O` (stereo not drawn), the IC50 in assay [1] was above 1000 nM; in assay [2], above 1000 nM; in assay [3], above 2500 nM; in assay [4], above 2500 nM; in assay [5], above 1000 nM; in assay [6], above 1000 nM. The IC50 in assay [7] is above 1000 nM.

Consider `O=C(Nc1ccc(CN2CCOCC2)cc1)c1ccc(-c2ccc(Br)cc2)o1`, for which the IC50 is above 1000 nM in assay [1]; above 1000 nM in assay [2]; above 2500 nM in assay [3]; above 2500 nM in assay [4]; above 1000 nM in assay [5]; above 1000 nM in assay [6]. The IC50 in assay [7] is above 1000 nM.

Turning to `CCN(CC)c1ccc(NC(=O)c2cccs2)cc1`, the IC50 in assay [1] is above 1000 nM; in assay [2], above 1000 nM; in assay [3], above 2500 nM; in assay [4] it was above 2500 nM; in assay [5], above 1000 nM; in assay [6] it was above 1000 nM. In assay [7], this molecule registered an IC50 above 1000 nM.

As to `O=C(Nc1ccsc1C(=O)NC1CCCCC1)c1ccc(F)cc1`, the IC50 is above 1000 nM in assay [1]; above 1000 nM in assay [2]; above 2500 nM in assay [3]; above 2500 nM in assay [4]; above 1000 nM in assay [5]; above 1000 nM in assay [6]. In assay [7], this molecule displayed an IC50 above 1000 nM.

Take `CCN(CC)c1cc(C)c2cc(NC(=O)c3cccc(OC)c3)ccc2n1`: the IC50 is above 1000 nM in assay [1]; above 1000 nM in assay [2]; above 2500 nM in assay [3]; above 2500 nM in assay [4]; above 1000 nM in assay [5]; above 1000 nM in assay [6]. Also, the IC50 in assay [7] was above 1000 nM.

On to `CCOc1ccc(-c2nc(NC(=O)c3cccc(S(C)(=O)=O)c3)sc2C)cc1`, for which the IC50 in assay [1] was above 1000 nM; in assay [2], above 1000 nM; in assay [3], above 2500 nM; in assay [4] it was above 2500 nM; in assay [5], above 1000 nM; in assay [6], above 1000 nM. For the same molecule, in assay [7], the IC50 was above 1000 nM.

For the molecule `COc1ccccc1N1CCN(C(CNS(=O)(=O)c2ccc(Cl)cc2)c2cccnc2)CC1` (stereo not drawn), the concentration for half-maximal inhibition (IC50) is above 1000 nM in assay [1]; above 1000 nM in assay [2]; above 2500 nM in assay [3]; above 2500 nM in assay [4]; above 1000 nM in assay [5]; above 1000 nM in assay [6]. In assay [7], this molecule came in with an IC50 above 1000 nM.

Turning to `C=C(C)CCC(C)N1CCC(N2CCC(C(=O)NCCc3ccccc3)CC2)CC1` (stereo not drawn), the IC50 in assay [1] is above 1000 nM; in assay [2] it was above 1000 nM; in assay [3] it was above 2500 nM; in assay [4], above 2500 nM; in assay [5] it was above 1000 nM; in assay [6], above 1000 nM. Also, in assay [7], the IC50 was above 1000 nM.
